Our source for the remaining activity values is publication PMC8286840, “Identifying SARS-CoV-2 antiviral compounds by screening for small molecule inhibitors of Nsp3 papain-like protease” (Biochemical Journal, 2021).

Structures can show the parent of a compound that is named as a salt. Where two headings read alike, the source gives them in different places.

In test [1] the target is T1, SARS-CoV-2 PLpro (nsp3 1564–1878) (Severe acute respiratory syndrome coronavirus 2, UniProt P0DTD1). The test is described as follows: biochemical. Set-up: FRET-quenched peptide (Pro3) cleavage by PLpro, 10 min pre-incubation, slope over 20 min, normalised to no-compound control. The settings on record: low concentration screen, read-out: % of control remaining.
In test [2] the target is T1, SARS-CoV-2 PLpro (nsp3 1564–1878). The test is described as follows: biochemical. The arrangement: FRET-quenched peptide (Pro3) cleavage by PLpro, 10 min pre-incubation, slope over 20 min, normalised to no-compound control. The settings on record: high concentration screen, read-out: % of control remaining.

As for `Clc1cccc(N2CCNCC2)c1` [1-(3-Chlorophenyl)piperazine dihydrochloride], the remaining activity at 1.25 µM in test [1] (Well no.=36) was 106%. Also, the remaining activity at 3.75 µM in test [2] (Well no.=36) was determined as 104%.

Consider `COc1ccc2c(c1)c(CC(=O)O)c(C)n2Cc1ccc(Cl)cc1` [1-(4-Chlorobenzyl)-5-methoxy-2-methylindole-3-acetic acid], for which the remaining activity at 1.25 µM in test [1] (Well no.=379) was determined as 99.8%. Also, the remaining activity at 3.75 µM in test [2] (Well no.=379) amounted to 99.4%.

Consider `COc1ccc2c(c1)c(CC(=O)O)c(C)n2Cc1ccc(F)cc1` [1-(4-Fluorobenzyl)-5-methoxy-2-methylindole-3-acetic acid], for which the remaining activity at 1.25 µM in test [1] (Well no.=515) amounted to 99.4%. Further, the remaining activity at 3.75 µM in test [2] (Well no.=515) was 99.5%.

Consider `Oc1ccc(Cn2cc[nH]c2=S)cc1` [1-(4-Hydroxybenzyl)imidazole-2-thiol], for which the remaining activity at 1.25 µM in test [1] (Well no.=516) came to 104%. Further, the remaining activity at 3.75 µM in test [2] (Well no.=516) was 105%.

In the case of `COc1ccc2cc(OCC3(C(=O)O)CN(C(=O)c4ccc(F)cc4)C3)ccc2c1` [1-(4-fluorobenzoyl)-3-(((6-methoxynaphthalen-2-yl)oxy)methyl)azetidine-3-carboxylic acid], the remaining activity at 1.25 µM in test [1] (Well no.=5909) was 103%. The remaining activity at 3.75 µM in test [2] (Well no.=5909) was 102%.

Consider `CC1CNCCN1S(=O)(=O)c1cccc2cnccc12` (stereo not shown) [1-(5-Isoquinolinylsulfonyl)-2-methylpiperazine dihydrochloride], for which, in test [1] (Well no.=965), the remaining activity at 1.25 µM was 104%. In addition, in test [2] (Well no.=965), the remaining activity at 3.75 µM was determined as 103%.

As to `CC1CN(S(=O)(=O)c2cccc3cnccc23)CCN1` (stereo not shown) [1-(5-Isoquinolinylsulfonyl)-3-methylpiperazine dihydrochloride], the remaining activity at 1.25 µM in test [1] (Well no.=869) amounted to 106%. For the same compound, in test [2] (Well no.=869), the remaining activity at 3.75 µM was determined as 104%.

With `NC(N)=NC(N)=Nc1cccc(Cl)c1` [1-(m-Chlorophenyl)-biguanide hydrochloride], the remaining activity at 1.25 µM in test [1] (Well no.=487) was 106%. In addition, the remaining activity at 3.75 µM in test [2] (Well no.=487) worked out at 103%.

With `CN1CCN(CCCCN2C(=O)CN(/N=C/c3ccc(-c4ccc(Cl)cc4)o3)C2=O)CC1` [1-({(E)-[5-(4-chlorophenyl)-2-furyl]methylidene}amino)-3-[4-(4-methyl-1-piperazinyl)butyl]-2,4-imidazolidinedione dihydrochloride], in test [1] (Well no.=5603), the remaining activity at 1.25 µM turned out to be 97.6%. In addition, the remaining activity at 3.75 µM in test [2] (Well no.=5603) was 101%.

As to `C=CCn1c(=O)c2c(nc(-c3ccc(S(=O)(=O)O)cc3)n2C)n(C)c1=O` [1-Allyl-3,7-dimethyl-8-p-sulfophenylxanthine], in test [1] (Well no.=16), the remaining activity at 1.25 µM came out at 98.3%. In test [2] (Well no.=16), the remaining activity at 3.75 µM worked out at 89.6%.

Consider `NC1(C(=O)O)CCCCC1` [1-Amino-1-cyclohexanecarboxylic acid hydrochloride], for which the remaining activity at 1.25 µM in test [1] (Well no.=160) came out at 100%. For the same compound, in test [2] (Well no.=160), the remaining activity at 3.75 µM is 102%.

On to `Nn1nnc2ccccc21` [1-Aminobenzotriazole], for which, in test [1] (Well no.=253), the remaining activity at 1.25 µM worked out at 98.6%. The remaining activity at 3.75 µM in test [2] (Well no.=253) worked out at 99%.

`NC1(C(=O)O)CC1` [1-Aminocyclopropanecarboxylic acid hydrochloride]: the remaining activity at 1.25 µM in test [1] (Well no.=341) came to 100%. Also, in test [2] (Well no.=341), the remaining activity at 3.75 µM is 102%.

With `O=C1Cc2c([nH]c3ccc(Br)cc23)-c2ncccc2N1` [1-Azakenpaullone], the remaining activity at 1.25 µM in test [1] (Well no.=2335) was 96.4%. Besides, the remaining activity at 3.75 µM in test [2] (Well no.=2335) came out at 97.1%.

On to `OC[C@H]1NC[C@H](O)[C@@H](O)[C@@H]1O` [1-Deoxynojirimycin hydrochloride], for which the remaining activity at 1.25 µM in test [1] (Well no.=586) was 102%. For the same compound, in test [2] (Well no.=586), the remaining activity at 3.75 µM stood at 102%.

As for `CCCCCCCCCCCCCCCCOCC(CO)OC(C)=O` (stereo not shown) [1-Hexadecyl-2-O-acetyl-glycerol], the remaining activity at 1.25 µM in test [1] (Well no.=4238) amounted to 95.2%. For the same compound, the remaining activity at 3.75 µM in test [2] (Well no.=4238) was 98.7%.

`CCCCCCCCCCCCCCCCOC[C@H](CO)OC` [1-Hexadecyl-2-O-methyl-glycerol]: in test [1] (Well no.=4572), the remaining activity at 1.25 µM was 97.5%. For the same compound, the remaining activity at 3.75 µM in test [2] (Well no.=4572) came to 99.2%.

For `CCCCCCCCCCCCCCCCOCC(COP(=O)([O-])OCC[N+](C)(C)C)OC` (stereo not shown) [1-Hexadecyl-2-methylglycero-3 PC], the remaining activity at 1.25 µM in test [1] (Well no.=4259) came to 95.4%. In addition, in test [2] (Well no.=4259), the remaining activity at 3.75 µM is 92%.

For `Cn1cnc2c(ncn2[C@@H]2O[C@H](CO)[C@@H](O)[C@H]2O)c1=N` [1-Methyladenosine], the remaining activity at 1.25 µM in test [1] (Well no.=7121) worked out at 102%. Besides, the remaining activity at 3.75 µM in test [2] (Well no.=7121) was found to be 98.5%.

For `Cn1cnc(CCN)c1` [1-Methylhistamine dihydrochloride], the remaining activity at 1.25 µM in test [1] (Well no.=928) worked out at 101%. Also, the remaining activity at 3.75 µM in test [2] (Well no.=928) came to 103%.

As for `Cn1ccnc1` [1-Methylimidazole], in test [1] (Well no.=939), the remaining activity at 1.25 µM is 101%. Besides, the remaining activity at 3.75 µM in test [2] (Well no.=939) is 102%.

Take `Cn1cnc2c(ncn2[C@@H]2O[C@H](CO)[C@@H](O)[C@H]2O)c1=O` [1-Methylinosine]: the remaining activity at 1.25 µM is 103% in test [1] (Well no.=7167) and 102% in test [1] (Well no.=7858). In addition, in test [2] (Well no.=7167), the remaining activity at 3.75 µM came to 101%.

For the compound `CC(C)(C)n1nc(-c2cccc3ccccc23)c2c(N)ncnc21` [1-Naphthyl PP1 - 1-(1,1-Dimethylethyl)-3-(1-naphthalenyl)-1H-pyrazolo[3,4-d]pyrimidin-4-amine], the remaining activity at 1.25 µM in test [1] (Well no.=2674) is 98%. Also, the remaining activity at 3.75 µM in test [2] (Well no.=2674) amounted to 98.4%.

In the case of `CCCCCCCC/C=C\CCCCCCCC(=O)OC[C@H](CO)OC(C)=O` [1-Oleoyl-2-acetyl-glycerol], the remaining activity at 1.25 µM in test [1] (Well no.=4480) is 97.7%. Besides, the remaining activity at 3.75 µM in test [2] (Well no.=4480) worked out at 99.2%.

Turning to `S=C(Nc1ccccc1)Nc1nccs1` [1-Phenyl-3-(2-thiazolyl)-2-thiourea], the remaining activity at 1.25 µM in test [1] (Well no.=858) came out at 99.5%. Also, the remaining activity at 3.75 µM in test [2] (Well no.=858) was 96.6%.

For `NC(N)=NC(N)=Nc1ccccc1` [1-Phenylbiguanide], the remaining activity at 1.25 µM in test [1] (Well no.=1263) is 102%. The remaining activity at 3.75 µM in test [2] (Well no.=1263) was found to be 102%.

On to `CCCCC/C=C\C/C=C\C/C=C\C/C=C\CCCC(=O)O[C@@H](CO)COC(=O)CCCCCCCCCCCCCCCCC` [1-Stearoyl-2-arachidonoyl-glycerol], for which the remaining activity at 1.25 µM in test [1] (Well no.=4482) was found to be 95.9%. Further, the remaining activity at 3.75 µM in test [2] (Well no.=4482) was found to be 96.2%.

Regarding `FC(F)(F)c1ccccc1-n1ccnc1` [1-[2-(Trifluoromethyl)phenyl]imidazole], the remaining activity at 1.25 µM in test [1] (Well no.=1533) was found to be 89.9%. The remaining activity at 3.75 µM in test [2] (Well no.=1533) stood at 90.7%.

Regarding `O=c1ccn([C@@H]2O[C@H](CO)[C@@H](O)[C@@H]2O)c(=O)[nH]1` [1-_beta-_D-_Arabinofuranosylurac_il], in test [1] (Well no.=8887), the remaining activity at 1.25 µM came out at 95.2%. In addition, in test [2] (Well no.=8887), the remaining activity at 3.75 µM is 94.3%.

On to `C=CC(=O)N1C/C(=C\c2ccc([N+](=O)[O-])cc2)C(=O)/C(=C/c2ccc([N+](=O)[O-])cc2)C1` [1-acryloyl-3,5-bis((E)-4-nitrobenzylidene)piperidin-4-one], for which the remaining activity at 1.25 µM in test [1] (Well no.=6015) was 103%. Also, in test [2] (Well no.=6015), the remaining activity at 3.75 µM came out at 99.9%.
